Where “and” joins values, the source holds several entries; their conditions need not be identical. Identical values can stand only once.
Tests used:
[1] = tested on: CAD samples (hematological malignancy patients at diagnosis); assay: FISH replication assay, cultures of hematological malignancy patients (CAD) with chromatin modifiers (Example 10); assay type: cell-based, human; conditions: for frequency (%) of SD cells, Mean: N = 10; for replication pattern in cells derived from cancer patients: cultured cells with chromatin modifier
Text: (§1) Cultures were set up from 44 healthy individuals (hereafter called CON) and 20 hematological malignancy patients at diagnosis (hereafter termed CAD). For 20 of the CON samples and all of the CAD samples peripheral in addition to the setting up cultures in the regular growth medium, cultures were set up in medium containing 5-azacytidine (10^−7M; Sigma, USA; hereafter referred to as AZA) a demethylating agent. In addition, cultures from 6 CON and 10 CAD samples were set up in medium containing a deacetylating agents, either Trichostatin A (33 nM; Sigma, USA; hereafter referred to as TSA) or Sodium Butirate (1 nM; Sigma, USA; hereafter referred to as NB), two well described acetylating agents.
(§2) These samples were hybridized with two commercial probes: the AML1 probe (LSI 21, […]) and the α-satellite probe specific for centromere 17 (32-130017, hereafter marked as CEN17). The results are summarized in Table 1 giving the number of samples hybridized with each probe (N), Mean and standard deviation (stdev) as well as the p value obtained using two tailed student's t-test (Microsoft Office 98).

[2] = tested on: CON samples (healthy individuals); assay: FISH replication assay, cultures of healthy individuals (CON) with chromatin modifiers (Example 10); assay type: cell-based, human; conditions: cultured cells with chromatin modifier
Text: as §1, §2

[3] = tested on: peripheral blood lymphocytes (PBL); assay: FISH replication assay on PBL of healthy donors treated with GCSF; assay type: in vivo, human; conditions: five days after GCSF treatment; for % SD after GCSF treatment, Average: PBL of healthy donors, n = 6 as printed; for % SD after GCSF treatment: PBL of individual healthy donors
Text: Healthy subjects treated with GCSF. Seven first degree relatives (sibling or parent) of patients suffering from hematological malignancies who were candidates for donating peripheral blood stem cells agreed to participate in the study. PBL were collected before treatment with GCSF and five days after treatment, on the day of collecting cells for transplantation. Six donors were male, one female.
Comparison of synchrony in healthy subjects, cancer patients and GCSF-treated healthy donors. Bone marrow and PBL samples were obtained with informed consent from healthy control subjects and patients as detailed hereinabove. Samples were analyzed by FISH as described hereinabove.
It is believed that the SD cell percentage values are enhanced for a limited time and return to normal after cessation of GCSF treatment. The samples tested here were obtained five days after GCSF treatment. This period is usually chosen for obtaining cells for transplantation, because at the effect of GCSF is maximal five days after administration.

Molecule	frequency (%) of SD cells, Mean ([1]; AML1 locus, CAD + TSA (33 nM))	frequency (%) of SD cells, Mean ([1]; CEN17 locus, CAD + TSA (33 nM))	replication pattern in cells derived from cancer patients [1]	replication pattern observed in normal genomes [2]	frequency (%) of SD cells, Mean ([1]; AML1 locus, CAD + NB (1 nM))	frequency (%) of SD cells, Mean ([1]; CEN17 locus, CAD + NB (1 nM))	% SD after GCSF treatment, Average ([3]; 21q22 probe (D21S55))	% SD after GCSF treatment ([3]; 21q22 probe (D21S55))	% SD after GCSF treatment, Average ([3]; TP53 probe)	% SD after GCSF treatment ([3]; TP53 probe)
CC(/C=C/C(=O)NO)=C\[C@@H](C)C(=O)c1ccc(N(C)C)cc1 [TSA, Trichostatin A]	Mean = 24.2%	Mean = 20.3%	attenuate the replication pattern presented in cells derived from cancer patients towards the normal	not affecting	–	–	–	–	–	–
CCCC(=O)[O-].[Na+] [NB, Sodium Butirate]	–	–	attenuate the replication pattern presented in cells derived from cancer patients towards the normal	not affecting	Mean = 23.2%	Mean = 19.6%	–	–	–	–
GCSF: hematopoietic growth factor given to donors of bone marrow cells to enhance the number of stem cells (protein, UniProt P09919 31-207, looked up) Granulocyte …: TPLGPASSLPQSFLLKCLEQVRKIQGDGAALQEKLVSECATYKLCHPEELVLLGHSLGIPWAPLSSCPSQALQLAGCLSQLHSGLFLYQGLLQALEGISPELGPTLDTLQLDVADFATTIWQQMEELGMAPALQPTQGAMPAFASAFQRRAGGVLVASHLQSFLEVSYRVLRHLAQP	–	–	–	–	–	–	35.42%	32% and 43% and 39% (2×) and 31% and 29% and 35%	36.57%	34% (2×) and 41% and 38% and 36% (2×) and 37%
